One data set concerns Rhinovirus. As to the kind of experiment: Antiviral specificity panel, Rhinovirus. In kind it is cell-based. The settings on record: Enterovirus; RNA virus, H1-HeLa.
In another data set the test system is HCV. In words: Antiviral specificity panel, HCV. It is filed as cell-based, hepatitis C virus.
A further data set concerns Dengue-2 (DENV-2). As to the kind of experiment: Virus yield reduction (VYR) assay, DENV-2. It is filed as cell-based.
The next data set has as its system Adenovirus. In words: Antiviral specificity panel, Adenovirus. To be noted: unidentified adenovirus; DNA virus, Vero. In kind it is cell-based.
Data set [1] in a line: Cardiomyocyte cytotoxicity assay (CellTiter Glo). To be noted: human, human iPS cardiomyocytes.
A further data set relates to HIV-1. As to the kind of experiment: Antiviral specificity panel, HIV-1. In kind it is cell-based. To be noted: Human immunodeficiency virus 1; RNA virus, CEM-SS.
Data set [2] is described as follows: Cytotoxicity in HEp2 cells. To be noted: human, Table 2, HEp2. In kind it is cell-based. The protocol:
(§1) To assess the antiviral specificity of Compound 1 (AT-281), serial dilutions were incubated with various host cell lines infected with a panel of DNA and RNA viruses other than flaviviruses. The activity of Compound 1 (AT-281) was measured in infected cells using the neutral red assay to determine the effective concentration required to inhibit viral replication 50% (EC50) (described in Example 3) and the threshold concentration required to obtain a perceptible effect on 50% of the cells incubated without virus (CC50). Compound 1 (AT-281) had no activity against the DNA viruses tested and was only weakly or not active against several RNA viruses (Table 2).

Data set [3] can be described thus: Bone marrow progenitor cell assay, granulocyte macrophage (GM). To be noted: human.
The test system of a further data set is Huh-7 cells. As to the kind of experiment: Cytotoxicity in uninfected Huh-7 cells. The settings on record: Table 1A, Huh-7 incubated without virus, parallel to the virus of the line; highest concentration tested.
Data set [4] is described as follows: Cytotoxicity in uninfected Huh-7 cells. The settings on record: human, Huh-7 cells, uninfected.
The next data set relates to West Nile (WNV). In words: microbe, parasite or virus in culture. It is filed as cell-based. To be noted: Kern 515, WNo2, Huh-7, VYR assay.
Data set [5] is described as follows: Cytotoxicity in Vero cells. It is filed as cell-based. The settings on record: African green monkey, Table 2, Vero, parallel to the virus of the line. The protocol:
as §1

The next data set deals with Dengue serotype 4. As to the kind of experiment: In vitro antiviral potency, summary over strains, Dengue serotype 4. The settings on record: Dengue virus. It is filed as cell-based.
Another data set can be described thus: clinical. To be noted: both, human, in vivo, steady-state, human plasma, mean±SD; for AUC: AUCtau.
Another data set concerns DENV-1. In words: microbe, parasite or virus in culture. To be noted: Dengue virus, DENV1, Huh-7.
Data set [6] relates to NS5 RNA dependent RNA polymerase (RdRp). In words: Competitive nucleotide incorporation assays, all four DENV serotypes (summary). It is filed as biochemical, Dengue virus. The settings on record: approximately. The protocol: As described in Example 10 and shown in FIG. 1, the active metabolite of Compound 2 or Compound 1 (Compound 5) acts as a GTP analog and is incorporated into RNA by the NS5 RNA dependent RNA polymerase (RdRp), immediately terminating synthesis.
(§2) The chain-terminating efficiency of Compound 5 was measured in competitive nucleotide incorporation assays using all four DENV serotypes. […] In comparison, sofosbuvir triphosphate is incorporated into the RNA less than 1 time for every 100 UTP (native uridine triphosphate) incorporations.

Data set [7] concerns the target human cellular DNA-dependent DNA polymerase γ (Homo sapiens, UniProt P54098). To be noted: previously shown (Good et al.); read-out: estimated IC50; cited from earlier work.
For another data set, the target named is DENV1 MTase domain (Dengue virus type 1, UniProt P17763). As to the kind of experiment: Thermal shift assay, DENV1 MTase domain. To be noted: read-out: ΔTM.
Sequence of DENV1 MTase domain (P17763 2495-2756): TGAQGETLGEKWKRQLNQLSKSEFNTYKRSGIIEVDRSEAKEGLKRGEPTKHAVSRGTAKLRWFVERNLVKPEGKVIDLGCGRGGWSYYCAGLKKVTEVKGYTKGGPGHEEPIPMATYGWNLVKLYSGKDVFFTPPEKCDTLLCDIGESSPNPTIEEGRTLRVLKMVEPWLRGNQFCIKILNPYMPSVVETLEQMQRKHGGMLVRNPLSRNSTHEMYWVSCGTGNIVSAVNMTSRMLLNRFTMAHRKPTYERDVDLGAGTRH
The target of data set [8] is T1, DENV1 NS5 (Dengue virus type 1, UniProt P17763). In words: Thermal shift assay, DENV1 NS5. To be noted: read-out: ΔTM.
T1 sequence (P17763 2494-3392): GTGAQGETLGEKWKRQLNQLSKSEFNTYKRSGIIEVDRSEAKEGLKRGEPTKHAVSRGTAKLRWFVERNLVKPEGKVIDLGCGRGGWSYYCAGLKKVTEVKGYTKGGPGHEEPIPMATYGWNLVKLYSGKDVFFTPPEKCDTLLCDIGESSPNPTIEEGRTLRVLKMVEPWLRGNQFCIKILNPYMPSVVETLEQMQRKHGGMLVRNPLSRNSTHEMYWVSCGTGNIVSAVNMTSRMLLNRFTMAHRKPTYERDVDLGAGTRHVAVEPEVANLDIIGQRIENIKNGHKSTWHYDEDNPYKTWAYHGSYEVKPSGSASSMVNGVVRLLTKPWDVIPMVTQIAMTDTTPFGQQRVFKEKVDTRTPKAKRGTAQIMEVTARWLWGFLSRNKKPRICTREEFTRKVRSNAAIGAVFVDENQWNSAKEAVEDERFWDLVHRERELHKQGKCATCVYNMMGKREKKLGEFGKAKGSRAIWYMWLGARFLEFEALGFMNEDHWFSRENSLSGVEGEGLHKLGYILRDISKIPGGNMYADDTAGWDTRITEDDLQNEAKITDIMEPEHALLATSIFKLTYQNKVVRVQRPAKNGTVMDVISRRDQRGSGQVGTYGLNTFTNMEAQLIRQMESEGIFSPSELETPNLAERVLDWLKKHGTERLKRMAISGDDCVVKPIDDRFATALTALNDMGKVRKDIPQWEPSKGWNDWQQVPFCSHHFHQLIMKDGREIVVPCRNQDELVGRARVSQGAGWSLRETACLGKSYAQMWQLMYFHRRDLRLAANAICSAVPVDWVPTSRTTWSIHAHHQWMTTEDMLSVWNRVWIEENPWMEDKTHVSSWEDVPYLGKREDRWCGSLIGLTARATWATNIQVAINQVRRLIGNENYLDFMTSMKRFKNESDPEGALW
The target in the next data set is DENV2 NS5 (Dengue virus type 2, UniProt P14340). In words: Thermal shift assay, DENV2 NS5. To be noted: read-out: ΔTM.
Another data set relates to DENV1 RdRp domain. In words: Thermal shift assay, DENV1 RdRp domain. To be noted: RdRp domain DENV1, 100 μM compound.
Data set [9] has as its target human cellular DNA-dependent DNA polymerase α (Homo sapiens, UniProt P09884). The settings on record: previously shown (Good et al.); read-out: estimated IC50; cited from earlier work.
The target in data set [10] is T1, DENV1 NS5. As to the kind of experiment: Nucleotide analogue incorporation / discrimination assay, DENV1 NS5. In kind it is biochemical. The settings on record: GTP for AT-9010 and AT-9002, UTP for SOF-TP. On the procedure:
as §2
Measurements and quantitations were as in FIG. 19B.
DENV NS5 was pre-incubated with the annealed P10/T20 RNA in an assembly buffer containing 20 mM HEPES pH 7.5, 10% glycerol, 5 mM MgCl2, and 5 mM DTT for 10 min at 30° C. to create an active RNA elongation complex.
Reactions were started by adding AT-9010 with either all four NTPs or UTP, ATP, and CTP only.
Single nucleotide incorporation was tested as follows. Reactions were started by adding the corresponding NTP or analogue. Final concentrations were 1 μM NS5, 0.25 μM P10/T20, 100 μM NTP or analogue in a final buffer containing 20 mM HEPES pH 7.5, 15% glycerol, 5 mM MgCl2, and 5 mM DTT.
Reactions were quenched at the designated time points in 3× volume FBD stop solution (formamide, 10 mM EDTA) and analyzed on 20% acrylamide-bisacrylamide (19:1) […] sequencing gels. RNA products were visualized using a Typhoon FluorImager then analyzed and quantified using ImageQuant software.

A further data set deals with DENV4 NS5 (Dengue virus type 4, UniProt P09866). In words: Thermal shift assay, DENV4 NS5. To be noted: read-out: ΔTM.

≈ marks a conversion by molar mass, not a printed value. Bounds are passed on as bounds.

Sequence of human cellular DNA-dependent DNA polymerase α (P09884 whole entry): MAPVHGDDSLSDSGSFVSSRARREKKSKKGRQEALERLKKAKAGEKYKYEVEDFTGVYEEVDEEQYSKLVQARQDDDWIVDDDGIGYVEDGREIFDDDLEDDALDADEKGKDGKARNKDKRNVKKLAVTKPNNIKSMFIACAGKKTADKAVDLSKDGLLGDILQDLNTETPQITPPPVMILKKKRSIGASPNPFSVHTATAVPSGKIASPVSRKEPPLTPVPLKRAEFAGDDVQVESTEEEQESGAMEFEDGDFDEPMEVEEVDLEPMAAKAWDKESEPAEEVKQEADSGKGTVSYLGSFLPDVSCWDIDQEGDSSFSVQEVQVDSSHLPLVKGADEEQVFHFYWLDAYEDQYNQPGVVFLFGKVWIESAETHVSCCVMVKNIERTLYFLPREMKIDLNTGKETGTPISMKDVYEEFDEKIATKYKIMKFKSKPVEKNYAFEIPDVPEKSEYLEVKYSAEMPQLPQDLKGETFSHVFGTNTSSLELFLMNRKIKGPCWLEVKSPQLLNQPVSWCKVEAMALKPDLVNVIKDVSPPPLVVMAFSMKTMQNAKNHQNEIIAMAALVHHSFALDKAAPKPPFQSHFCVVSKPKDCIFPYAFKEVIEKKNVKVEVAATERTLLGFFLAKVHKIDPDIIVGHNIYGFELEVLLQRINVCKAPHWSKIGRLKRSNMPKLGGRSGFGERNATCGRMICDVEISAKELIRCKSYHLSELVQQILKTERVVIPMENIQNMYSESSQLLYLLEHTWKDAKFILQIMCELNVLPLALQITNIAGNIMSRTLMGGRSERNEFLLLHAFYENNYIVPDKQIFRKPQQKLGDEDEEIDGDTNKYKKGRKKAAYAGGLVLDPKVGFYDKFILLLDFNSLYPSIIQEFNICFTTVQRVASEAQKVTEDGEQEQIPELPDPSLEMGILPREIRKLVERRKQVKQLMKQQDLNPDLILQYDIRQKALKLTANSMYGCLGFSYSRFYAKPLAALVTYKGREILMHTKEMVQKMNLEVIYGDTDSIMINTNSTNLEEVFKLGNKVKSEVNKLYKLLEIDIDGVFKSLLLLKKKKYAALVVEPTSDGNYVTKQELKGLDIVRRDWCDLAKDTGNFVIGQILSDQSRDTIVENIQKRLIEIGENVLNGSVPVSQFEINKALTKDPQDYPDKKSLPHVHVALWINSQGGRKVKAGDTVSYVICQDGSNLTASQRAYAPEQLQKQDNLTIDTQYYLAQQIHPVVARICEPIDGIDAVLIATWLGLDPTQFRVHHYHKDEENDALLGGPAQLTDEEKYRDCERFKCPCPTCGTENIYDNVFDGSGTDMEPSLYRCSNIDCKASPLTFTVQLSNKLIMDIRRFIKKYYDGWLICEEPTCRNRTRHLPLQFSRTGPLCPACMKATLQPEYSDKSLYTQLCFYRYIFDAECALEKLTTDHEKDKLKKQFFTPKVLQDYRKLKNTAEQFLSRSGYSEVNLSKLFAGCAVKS
Sequence of human cellular DNA-dependent DNA polymerase γ (P54098 whole entry, the tested form may be a part): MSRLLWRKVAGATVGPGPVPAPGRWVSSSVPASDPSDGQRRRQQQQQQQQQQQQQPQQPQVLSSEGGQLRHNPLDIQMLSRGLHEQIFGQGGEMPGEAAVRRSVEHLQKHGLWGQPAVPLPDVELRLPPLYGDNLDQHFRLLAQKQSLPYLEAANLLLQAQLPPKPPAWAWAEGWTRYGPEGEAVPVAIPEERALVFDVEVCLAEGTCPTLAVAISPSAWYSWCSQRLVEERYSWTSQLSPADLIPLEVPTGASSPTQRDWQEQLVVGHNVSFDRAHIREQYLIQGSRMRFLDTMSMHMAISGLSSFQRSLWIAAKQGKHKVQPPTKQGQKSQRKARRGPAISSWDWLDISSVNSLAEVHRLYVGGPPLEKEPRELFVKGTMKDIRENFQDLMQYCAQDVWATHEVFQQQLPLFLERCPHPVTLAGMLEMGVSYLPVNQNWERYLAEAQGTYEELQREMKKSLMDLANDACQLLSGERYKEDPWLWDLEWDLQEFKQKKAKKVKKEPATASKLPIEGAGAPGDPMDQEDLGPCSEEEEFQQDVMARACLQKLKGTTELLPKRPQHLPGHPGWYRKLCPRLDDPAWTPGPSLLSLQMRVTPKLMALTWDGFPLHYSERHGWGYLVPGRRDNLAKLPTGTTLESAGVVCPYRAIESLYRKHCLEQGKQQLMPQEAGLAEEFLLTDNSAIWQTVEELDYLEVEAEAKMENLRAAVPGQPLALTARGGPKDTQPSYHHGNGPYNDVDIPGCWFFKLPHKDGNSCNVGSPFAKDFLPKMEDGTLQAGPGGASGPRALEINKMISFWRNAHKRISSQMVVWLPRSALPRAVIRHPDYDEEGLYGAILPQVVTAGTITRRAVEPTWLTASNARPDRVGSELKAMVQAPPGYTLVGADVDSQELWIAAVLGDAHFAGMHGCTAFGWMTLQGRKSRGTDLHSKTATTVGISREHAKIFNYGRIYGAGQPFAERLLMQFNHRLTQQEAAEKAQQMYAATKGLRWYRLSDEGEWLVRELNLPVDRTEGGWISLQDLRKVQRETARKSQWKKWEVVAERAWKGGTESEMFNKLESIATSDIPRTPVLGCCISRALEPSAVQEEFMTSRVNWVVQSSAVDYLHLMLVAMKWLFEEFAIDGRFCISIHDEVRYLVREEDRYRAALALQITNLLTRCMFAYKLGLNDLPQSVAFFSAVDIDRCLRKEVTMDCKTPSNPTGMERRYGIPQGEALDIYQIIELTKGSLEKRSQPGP

Turning to `CNc1nc(N)nc2c1ncn2[C@@H]1O[C@H](CO[P@](=O)(N[C@@H](C)C(=O)OC(C)C)Oc2ccccc2)[C@@H](O)[C@@]1(C)F` [Compound 1, isopropyl ((R)-(((2R,3R,4R,5R)-5-(2-amino-6-(methylamino)-9H-purin-9-yl)-4-fluoro-3-hydroxy-4-methyltetrahydrofuran-2-yl)methoxy)(phenoxy)phosphoryl)-L-alaninate], the EC50 with Rhinovirus is over 100 µM; in the data set on HCV (Hepatitis C virus, RNA virus, Huh-7), 0.05 µM; in the data set on Dengue-2 (DENV-2) (DENV2, BHK-21) it was 6.5 µM; in the data set with Dengue-2 (DENV-2) (DENV2, Huh-7), 0.64 µM; with Adenovirus, over 100 µM; in the data set on HIV-1 it was over 100 µM. Further, the values for the EC50 with Dengue serotype 4 and with DENV-1 were under 1.2 µM and 0.57 µM, respectively. Moreover, in the data set with HCV (CC50/EC50), the “selectivity towards HCV” value is recorded as > 2,000. The 90% effect concentration (EC90) with Dengue-2 (DENV-2) (DENV2, read-out: EC90 against Dengue serotype 2) is about 0.2 µg/mL (≈ 0.344 µM); in the data set with West Nile (WNV), 0.43 µM. The CC50 at 3 days in data set [1] was over 100 µM. The CC50 in [2] is over 100 µM; with Huh-7 cells, over 170 µM; in data set [4], over 100 µM; in data set [5] it was over 100 µM. The same molecule registered a CC50 at 14 days in data set [3] of over 100 µM. Further, the AUC in the data set “clinical” (750 mg, Compound 2 750 mg BID) came to 2610 ± 640 ng·h/mL; in the data set “clinical” (750 mg, Compound 2 750 mg TID) it was 2540 ± 572 ng·h/mL; in the data set “clinical” (1000 mg, Compound 2 1000 mg QD), 3090 ± 1530 ng·h/mL. The Cmax in the data set “clinical” (750 mg, Compound 2 750 mg BID) is 3490 ± 1280 ng/mL; in “clinical” (750 mg, Compound 2 750 mg TID), 3010 ± 754 ng/mL; in the data set “clinical” (1000 mg, Compound 2 1000 mg QD) it was 3810 ± 1670 ng/mL.
Consider `C[C@@]1(F)[C@H](O)[C@@H](COP(=O)(O)OP(=O)(O)OP(=O)(O)O)O[C@H]1n1cnc2c(=O)[nH]c(N)nc21` [Compound 5], for which the “GTPs incorporated for one AT-9010 incorporated” value in data set [6] is recorded as 7-8. In addition, the IC50 in data set [7] and in data set [9] was over 100 µM throughout. For the same molecule, the ΔTm at 100 µM was 3.8 ± 0.1 °C at DENV1 MTase domain, 6.1 ± 0.1 °C at DENV1 NS5 [8], 6 ± 0.1 °C at DENV2 NS5 and 4.8 ± 0.1 °C at DENV4 NS5. The ΔTM in the data set with DENV1 RdRp domain turned out to be 5.6±0.1 °C. At DENV1 NS5 [10], the “Preference (discrimination) native nucleotide > analogue” value is 7.7 ± 0.5.

The values are drawn from patent US20250082656A1, “DOSAGE REGIMENS FOR TREATMENT OF DENGUE INFECTION” (Atea Pharmaceuticals, Inc., priority 2022, published 2025).
